# Assay results published in patent US6512006B1, “HIV protease inhibitors” (Warner-Lambert Company, priority 1999, dated 2003).
# Read-outs that look alike come from different tables or passages of the source.
# What was measured:
# HIV protease enzyme = HIV protease enzyme (Human immunodeficiency virus type 1 group M subtype B, UniProt P04585); experiment: IC50s measured in vitro against HIV protease enzyme at pH 4.7 and 6.2
# uninfected CEM cells = experiment: Cellular toxicity in uninfected CEM cells (XTT); type: cell-based; conditions: cytotoxicity in 50% of uninfected CEM cells; read-out: TC50 (the source's name)
# Experimental: (§1) Compound concentrations were 0.32, 1, 3.2, 10, 32, and 100 μM.
# [1] = test system: HIV infected lymphocyte derived CEM cells; experiment: Cellular Infection Assay, XTT cytopathic procedure in CEM cells (antiviral efficacy); type: cell-based
# Experimental: Compounds were tested in lymphocyte derived CEM cells using the XTT cytopathic procedures and were performed at Southern Research Institute (Buckheit, et al., Antiviral Res., 1993;21:247; see also Weislow, et al., J. Nat. Cancer Inst., 1989;81:577). Compound concentrations were 0.32, 1, 3.2, 10, 32, and 100 μM. The EC50 represents the concentration of agent, which reduces HIV cytopathic effects 50% relative to untreated control. Cellular toxicity of the agents are estimated from the TC50 which represents the concentration of the agent which inhibits 50% of the viability of uninfected cells.
# EC50 indicates the concentration of the drug which provide 50% protection against HIV.
# [2] = target: T1, Recombinant HIV-1 protease (Human immunodeficiency virus type 1 group M subtype B, UniProt P04585); experiment: HIV Protease Assay (Ki); type: biochemical; conditions: pH 6.2, 37° C., 40 μM substrate III
# T1 construct: Recombinant HIV-1 protease (>96% purity); purchased Bachem Bioscience, Inc. (King of Prussia, Pa.)
# Experimental: Recombinant HIV-1 protease (>96% purity) and HIV protease substrate III (the undecapeptide H-His-Lys-Ala-Arg-Val-Leu-Nph-Glu-Ala-Nle-Ser-NH2, 97% purity) were purchased from Bachem Bioscience, Inc. (King of Prussia, Pa.).
# The methods employed follow the procedures of Tummino, et al., Archives of Biochemistry and Biophysics, 1995;316:523). […] (total volume, […]). […] The final inhibitor concentrations used were 0 (0.1, 0.2, in some experiments), 0.5, 1, 2, 5, 10, 20, 50, and 100 μM. The solution was mixed, incubated for 5 minutes and the reaction quenched by addition of trifluoracetic acid, 2% final. The (leu-p-nitro-phe) bond of the substrate is cleaved by the enzyme and substrate and products separated by reverse-phase HPLC (high pressure liquid chromatography). Absorbance was measured at 220 nm, peak areas determined, and percentage conversion to product used to calculate percentage control (=[% conversion (+inhibitor)/% conversion (−inhibitor)]×100).
# Ki means inhibitory constant; it approximately the equilibrium binding constant for the binding of the inhibitor to the free enzyme.
# [3] = Cellular toxicity in uninfected CEM cells (XTT); type: cell-based; conditions: human, uninfected CEM cells (lymphocyte derived), cytotoxicity in 50% of uninfected CEM cells; read-out: TC50 (the source's name)
# Experimental: as §1
# [4] = Human immunodeficiency virus 1, CCRF-CEM, read-out: Antiviral Efficacy EC50, CEM cells, 50% protection against HIV cytopathic effects
Molecule,IC50 (HIV protease enzyme; pH (4.7)) [nM],IC50 (HIV protease enzyme; pH (6.2)) [nM],melting point [°C],Ki ([2]; Inhibition of HIV Protease Ki) [nM],other results
Cc1ccc(C(C)(C)C)c(SC2=C(O)CC(CCc3ccccc3)(c3ccccc3)OC2=O)c1 (stereo not drawn),10,35,,,
CCCN(C1=C(O)CC(CCc2ccccc2)(C(C)C)OC1=O)c1ccccc1 (stereo not drawn) [drawing 7],4,4,,,
"Pyridine-2-sulfonic acid [3-({4-hydroxy-6-[2-(4-hydroxy-phenyl)-ethyl]-6-isopropyl-2-oxo-5,6-dihydro-2H-pyran-3-yl}-propyl-amino)-phenyl]-amide [Example 14]",,,,,"CC50 (uninfected CEM cells): 210000 nM; EC50 ([1]; CEM cells, 50% protection against HIV cytopathic effects, read-out: Antiviral Efficacy EC50): 1600 nM; Ki ([2]; read-out: Inhibition of HIV Protease Ki): 0.54 nM"
"CCCN(C1=C(O)CC(CCc2ccc(O)cc2)(C(C)C)OC1=O)c1cccc(NS(=O)(=O)c2ccc(C(F)(F)F)cn2)c1 (stereo not drawn) [Example 2, 5-Trifluoromethyl-pyridine-2-sulfonic acid [3-({4-hydroxy-6-[2-(4-hydroxy-phenyl)-ethyl]-6-isopropyl-2-oxo-5,6-dihydro-2H-pyran-3-yl}-propyl-amino)-phenyl]-amide]",,,107 to 110,0.083,"CC50 (uninfected CEM cells): 71000 nM; EC50 ([1]; read-out: Antiviral Efficacy EC50, CEM cells, 50% protection against HIV cytopathic effects): 1000 nM"
"CCCN(C1=C(O)CC(CCc2ccc(O)cc2)(C(C)C)OC1=O)c1ccccc1 (stereo not drawn) [Example 7, 4-Hydroxy-6-[2-(4-hydroxy-phenyl)-ethyl]-6-isopropyl-3-(phenyl-propyl-amino)-5,6-dihydro-pyran-2-one]",,,171 to 173,0.13,"CC50 [3]: 200000 nM; EC50 [1, 4]: 1300 nM"
Cc1ccc(C(C)(C)C)c(Sc2c(O)cc(-c3ccccc3)oc2=O)c1,28,280,,,
"CCCN(C1=C(O)CC(CCc2ccccc2CO)(C(C)C)OC1=O)c1ccccc1 (stereo not drawn) [Example 9, 4-Hydroxy-6-[2-(2-hydroxymethyl-phenyl)-ethyl]-6-isopropyl-3-(phenyl-propyl-amino)-5,6-dihydro-pyran-2-one]",,,58 to 60,2,"CC50 [3]: 101000 nM; EC50 [1, 4]: 1400 nM"
